Measurements from patent publication US6509355B1, “Treatment of disorders of the outer retina” (Alcon Laboratories, Inc., priority 1998, dated 2003).

How the values were obtained:
[1] = tested on: photo-oxidative induced retinopathy; experiment: Photo-oxidative induced retinopathy: 6-hour blue light exposure, ERG after 5-day recovery; details: rat, in vivo
Description: Photic retinopathy results from excessive excitation of the retinal pigment epithelium and neuroretina by absorption of visible or near ultraviolet radiation. Lesion severity is dependent upon wavelength, irradiance, exposure duration, species, ocular pigmentation, and age. Damage may result from peroxidation of cellular membranes, inactivation of mitochondrial enzymes such as cytochrome oxidase, or increased intracellular calcium. Cellular damage resulting from photo-oxidative stress leads to cell death by apoptosis, (Shahinfar, S., Edward. D. P. and Tso, M. O. (1991), A pathologic study of photoreceptor cell death in retinal photic injury. Current Eye Research, 10:47-59: Abler, A. S., Chang, C. J., Fu, J. and Tso, M. O. (1994), Photic injury triggers apoptosis of photoreceptor cells. Investigative Ophthalmology & Visual Science, 35(Suppl):1517). Oxidative stress induced apoptosis has been implicated as a cause of many ocular pathologies, including, iatrogenic retinopathy, macular degeneration, retinitis pigmentosa and other forms of heredodegenerative disease, ischemic retinopathy, retinal tears, retinal detachment, glaucoma and retinal neovascularization (Chang, C. J., Lai, W. W., Edward, D. P. and Tso, M. O. (1995), Apoptotic photoreceptor cell death after traumatic retinal detachment in humans, Archives of Ophthalmology, 113:880-886: Portera-Cailliau, C., Sung, C. H., Nathans, J. and Adler, R. (1994), Apoptotic photoreceptor cell death in mouse models of retinitis pigmentosa, Proceedings of National Academy of Science (U.S.A.), 91:974-978; Buchi, E. R. (1992), Cell death in the rat retina after a pressure-induced ischaemia-reperfusion insult: an electron microscopic study. I. Ganglion cell layer and inner nuclear layer, Experimental Eye Research, 55:605-613; Quigley, H. A., Nickells. R. W., Kerrigan, L. A., Pease, M. E., Thibault, D. J. and Zack, D. J. (1995), Retinal ganglion cell death in experimental glaucoma and after axotomy occurs by apoptosis, Investigative Ophthalmology & Visual Science, 36:774-786). […] Alan R. Liss, Inc., New York; Collier, R., W. Waldron and Zigman, S. (1989), Temporal sequence of changes to the gray squirrel retina after near-UV exposure, Investigative Ophthalmology & Visual Science, 30:631-637), non-human primates (Tso, M. O. M. (1973), Photic maculopathy in rhesus monkey. A light and electron microscopic study. Investigative Ophthalmology & Visual Science, 12:17-34; Ham, W. T., Jr., Ruffolo, J. J., Jr., Mueller, H. A. and Guerry, D., III. (1980), The nature of retinal radiation damage: dependence on wavelength, power level and exposure time, Vision Research, 20:1105-1111; Sperling, H. G., Johnson, C. and Harwerth, R. S. (1980), Differential spectral photic damage to primate cones, Vision Research, 20:1117-1125: Sykes, S. M., Robison, W. G., Jr., Waxler, M. and Kuwabara, T. (1981), Damage to the monkey retina by broad spectrum fluorescent light, Investigative Ophthalmology & Visual Science, 20:425-434; Lawwill, T. (1982), Three major pathologic processes caused by light in the primate retina: A search for mechanisms, Transactions of the American Ophthalmology Society, 80:517-577), and man (Marshall, J. Hamilton, A. M. and Bird, A. C. (1975), Histopathology of ruby and argon laser lesions in monkey and human retina, British Journal of Ophthalmology, 59:610-630; Green, W. R. and Robertson, D. M. (1991), Pathologic findings of photic retinopathy in the human eye. American Journal of Ophthalmology, 112:520-27).

NMDA receptor = experiment: Binding affinity to the NMDA receptor; details: order of magnitude only
[2] = tested on: light induced functional or morphological changes; experiment: Light damage paradigms (light induced damage paradigm); details: in vivo
Description: Eliprodil was evaluated in our light induced damage paradigm, a model of retinal degenerative diseases such as retinitis pigmentosa and age-related macular degeneration.

[3] = Drugs of the Future 1994; cited from earlier work
[4] = target: NR1A/NR2B subtype of the polyamine binding site of the NMDA receptor (Homo sapiens, UniProt Q05586+Q13224); details: cited from earlier work
Sequence of NR1A/NR2B subtype of the polyamine binding site of the NMDA receptor (Q13224 27-1484, other chains not shown): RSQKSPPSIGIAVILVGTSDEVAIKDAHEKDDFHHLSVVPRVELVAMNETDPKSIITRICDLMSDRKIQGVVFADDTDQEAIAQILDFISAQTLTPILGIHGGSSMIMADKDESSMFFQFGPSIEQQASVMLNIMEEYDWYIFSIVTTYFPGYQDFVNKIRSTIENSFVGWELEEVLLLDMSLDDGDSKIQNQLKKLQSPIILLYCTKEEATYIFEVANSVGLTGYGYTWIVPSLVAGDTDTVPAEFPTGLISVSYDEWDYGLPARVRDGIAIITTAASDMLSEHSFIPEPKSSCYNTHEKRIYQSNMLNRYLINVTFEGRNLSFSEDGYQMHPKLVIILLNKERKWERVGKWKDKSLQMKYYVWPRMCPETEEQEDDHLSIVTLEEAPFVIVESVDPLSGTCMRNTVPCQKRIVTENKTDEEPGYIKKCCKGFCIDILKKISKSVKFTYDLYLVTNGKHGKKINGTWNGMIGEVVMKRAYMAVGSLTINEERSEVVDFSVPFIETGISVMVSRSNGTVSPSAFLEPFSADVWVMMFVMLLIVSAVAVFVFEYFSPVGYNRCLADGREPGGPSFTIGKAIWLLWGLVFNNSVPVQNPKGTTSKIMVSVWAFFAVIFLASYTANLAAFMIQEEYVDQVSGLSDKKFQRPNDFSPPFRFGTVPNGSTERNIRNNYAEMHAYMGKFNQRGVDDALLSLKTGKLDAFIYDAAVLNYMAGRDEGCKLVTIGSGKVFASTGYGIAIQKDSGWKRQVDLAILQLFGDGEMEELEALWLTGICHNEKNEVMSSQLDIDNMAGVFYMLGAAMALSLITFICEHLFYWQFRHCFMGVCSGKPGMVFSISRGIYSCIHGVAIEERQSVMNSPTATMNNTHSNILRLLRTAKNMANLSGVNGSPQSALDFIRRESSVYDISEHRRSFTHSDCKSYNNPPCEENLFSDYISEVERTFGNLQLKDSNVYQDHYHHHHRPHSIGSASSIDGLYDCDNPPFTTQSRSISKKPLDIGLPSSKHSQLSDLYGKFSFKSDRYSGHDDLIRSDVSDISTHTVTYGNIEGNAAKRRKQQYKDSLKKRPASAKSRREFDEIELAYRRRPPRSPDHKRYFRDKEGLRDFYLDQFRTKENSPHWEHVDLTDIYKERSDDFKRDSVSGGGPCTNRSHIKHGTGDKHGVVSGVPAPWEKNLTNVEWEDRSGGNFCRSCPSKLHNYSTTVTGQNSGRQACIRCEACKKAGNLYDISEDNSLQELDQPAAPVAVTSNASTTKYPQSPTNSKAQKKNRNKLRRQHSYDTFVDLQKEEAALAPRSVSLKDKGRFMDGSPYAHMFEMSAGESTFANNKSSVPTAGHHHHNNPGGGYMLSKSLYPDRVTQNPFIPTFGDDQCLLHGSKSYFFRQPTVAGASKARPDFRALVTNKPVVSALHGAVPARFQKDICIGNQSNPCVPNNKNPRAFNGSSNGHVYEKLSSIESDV

[5] = Drugs of the Future 1994; cited from earlier work; remark: listed apart in the source
retinal laser burn = experiment: Retinal laser burn spread damage: argon laser, lesion area in outer nuclear layer after 48 hours; format: in vivo, Pigmented Long Evans rats
Description: The eye is exposed to high-energy laser radiation during the performance of retinal photocoagulation therapy (grid, focal and […]) or during photodynamic therapy. This type of therapy is often employed during treatment of choroidal neovascularization, proliferative stages of diabetic retinopathy, retinopathy of prematurity, or to repair retinal holes or […]. Associated with this laser therapy is tissue destruction leading to vision deterioration. […] It is believed that this vision loss results directly from the expansion of the laser-induced lesion to surrounding normal neurosensory retina and RPE. Singlet oxygen and other reactive oxygen species as well as cytokines are generated in the area of the laser burn and thought to migrate laterally to cause collateral retinal damage. Retinal morphology changes in this area are similar to changes in our photo-oxidative retinopathy paradigm. […] Pigmented Long Evans rats were randomly assigned to control, vehicle or drug dosed groups. […] After a 48-hour recovery period, eyes were fixed, dehydrated, and embedded in plastic resin. Histological assessment of laser burns was performed by flatmounting the retina and sectioning the tissue in a plane tangential to the nerve fiber layer. Using this technique, the lesion area in the outer nuclear layer could be calculated using an image analysis system. […] The laser bum center was marked by; complete closure of all capillaries, arterioles and venuoles; perforation of Bruch's membrane; pyknosis and necrosis of all photoreceptor nuclei; and destruction of inner and outer segments. Spread of the lesion into peripheral retina consisted of shortening of outer segments, inner segment swelling, clumping of melanin granules in the RPE and choroid, and vacuolization of the RPE.

With `OC(CN1CCC(Cc2ccc(F)cc2)CC1)c1ccc(Cl)cc1` (racemic) [Eliprodil, 2-[4-(4-fluorobenzyl)-piperidino]-1-(4-chlorophenyl)ethanol] the “dose dependence of protection of outer and inner retina function” value [1] was “dose-dependent protection”, the “ERGs, % of normal” value ([1]; ip, 2 mg/kg) was “approximately 32%” and the “protection of outer and inner retina function against light induced retinal degeneration” value ([1]; ip, 2 mg/kg) was “not significantly different than vehicles”. The “ERGs, % of normal” value ([1]; ip, 10 mg/kg) was “approximately 32%”, the “protection of outer and inner retina function against light induced retinal degeneration” value ([1]; ip, 10 mg/kg) was “not significantly different than vehicles” and the “ERG a-wave, % of normal” value ([1]; ip, 20 mg/kg) was 57%. For the same molecule, the “ERG a-wave, fold higher than vehicle dosed rats” value ([1]; ip, 20 mg/kg) was 2.4 fold, the “ERG b-wave, % of normal” value ([1]; ip, 20 mg/kg) was 53% and the “ERG b-wave, fold higher than vehicle dosed rats” value ([1]; ip, 20 mg/kg) was 2.2 fold. The “Maximum a-wave response amplitude, fold higher than vehicle dosed rats” value ([1]; ip, 20 mg/kg) was 2.4 fold, the “maximum a-wave response amplitude” value ([1]; ip, 20 mg/kg) was 395.82 μV and the “response amplitudes, % of normal” value ([1]; ip, 20 mg/kg) was “approximately 60%”. The “Maximum a-wave response amplitude, fold higher than vehicle dosed rats” value ([1]; ip, 40 mg/kg) was 2.25 fold, the “maximum a-wave response amplitude” value ([1]; ip, 40 mg/kg) was 419.85 μV and the “protection of outer and inner retina function against light induced retinal degeneration” value ([1]; ip, 40 mg/kg) was “significant protection”. The “response amplitudes, % of normal” value ([1]; ip, 40 mg/kg) was “approximately 60%”, the “binding affinity to the NMDA receptor” value (NMDA receptor) was “nanomolar” and the “preventing light induced functional or morphological changes” value [2] was “completely protected”. The “crossing of the blood-brain barrier” value [3] was “effectively crosses the blood-brain barrier”, the oral bioavailability [3] was “orally bioavailable” and the “subtype preference of NMDA receptor block” value [4] was “preferentially block”. For the same molecule, the “incidence of adverse effects upon administration” value [5] was “low incidence of adverse effects”, the “Laser burn lesion area” value (retinal laser burn; 10 mg/kg IP) was 55,411.67 μ^2 and the “reduction in laser lesion burn size” value (retinal laser burn; 10 mg/kg IP) was “No reduction”. The “reduction of retinal burn area compared to vehicle” value (retinal laser burn; IP, dose not given) was “approximately 60%”, the “significance of burn area reduction compared to vehicle” value (retinal laser burn; IP, dose not given) was “significantly reduced” and the average burn area (retinal laser burn; IP, dose not given, vehicle 55,243.65, control 50,627.07) was 22,406 μ^2. The “efficacy compared to R-eliprodil” value (retinal laser burn; summary) was “twice as efficacious”, the “potency compared to R-eliprodil” value (retinal laser burn; summary) was “two fold more potent” and the “reduction of collateral retinal damage around the laser burn (summary)” value (retinal laser burn; summary) was “significant reduction”.
